Laboratory results published in article PMC3690454, “14-3-3 Proteins Interact with a Hybrid Prenyl-Phosphorylation Motif to Inhibit G Proteins” (Cell, 2013).
Square brackets hold non-standard residues; d marks the D form. Ends that are not written are not given here. Peptide text beside a SMILES is read from it. * marks the point of attachment. Geranylgeranyl = CC(C)=CCC/C(C)=C/CC/C(C)=C/CC/C(C)=C/C*; Biotin = O=C1N[C@H]2[C@H](CS[C@H]2CCCCC(=O)*)N1; Farnesyl = CC(C)=CCC/C(C)=C/CC/C(C)=C/C*; pT = C[C@@H](OP(=O)(O)O)[C@H](N)C(=O)O; pS = N[C@@H](COP(=O)(O)O)C(=O)O; X1 = CC(C)=CCC/C(C)=C/C*; Ahx = NCCCCCC(=O)O; Prenyl = CC(C)=CC*

Columns and labels:
[1] = biological target: T1, 14-3-3ζ (Homo sapiens, UniProt P63104); assay: Isothermal titration calorimetry of Rnd3 C-terminal peptides with 14-3-3ζ; assay type: binding; settings: ITC
T1 construct: hexa-His; made in house; host or cells: E. coli BL21(DE3) Star
T1 sequence (P63104 1-245): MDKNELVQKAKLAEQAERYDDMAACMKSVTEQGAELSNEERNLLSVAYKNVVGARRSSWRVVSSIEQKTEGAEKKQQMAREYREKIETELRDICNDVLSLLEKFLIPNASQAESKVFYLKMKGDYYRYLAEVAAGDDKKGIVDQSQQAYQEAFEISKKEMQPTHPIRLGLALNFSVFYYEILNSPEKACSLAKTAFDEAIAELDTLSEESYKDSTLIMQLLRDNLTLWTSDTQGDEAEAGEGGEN
Protocol: ITC measurements were carried out using a VP-ITC200 instrument (GE Healthcare). The 14-3-3ζ domain (see Extended Experimental Procedures) was used at 50–60 μM in ITC buffer (50 mM Tris [pH 7.5]), 100 mM NaCl, 1 mM TCEP). Rnd3 C-terminal peptides were solubilized in ITC buffer and used at 500–600 μM. Titrations were carried out at 25°C in triplicate. Each titration was fitted to a simple one-site binding model using the Origin software provided with the instrument. Titrations with nonbinding peptides were carried out at 15°C and 25°C.
GST-14-3-3β protein was expressed as previously reported ([Yaffe et al., 1997]). A hexa-His-tagged version of 14-3-3ζ was expressed and purified essentially as previously reported ([Kostelecky et al., 2009]). In brief, the E. coli strain BL21(DE3) Star (Invitrogen) was transformed with the expression plasmid that was maintained by 34 μg/ml chloramphenicol. E. coli cells were grown to OD600nm of 0.7-0.8 in TB medium at 37°C and protein expression induced by 1 mM IPTG for 5 hr at 30°C. Pelleted cells were suspended in buffer A (25 mM Tris [pH 7.5], 100 mM NaCl, 1 mM EDTA, and 1 mM DTT) and disrupted by sonication. Insoluble material was cleared by high-speed centrifugation and the cleared lysate applied to a 5 ml HisTrap column using an AKTA system (GE Healthcare). The 14-3-3ζ protein was eluted with a linear gradient (0–500 mM) of Imidazole in buffer A. Finally, the protein was subjected to size-exclusion chromatography using a High-Load S200 pg column. As previously described, 14-3-3ζ eluted as a dimer with a molecular weight of ∼60 kDa. The final yield of 14-3-3ζ was 30–40 mg per liter of TB medium.

[2] = biological target: T1, 14-3-3ζ; assay: Biolayer interferometry (Octet RED96), immobilised biotinylated peptides, 14-3-3ζ in solution; assay type: binding; settings: for Kd: kinetic fit, peptide immobilised at 1 μg/ml, 25 mM Tris, 150 mM NaCl, 0.1% Tween-20, association 300 s, dissociation 300 s, NB = no binding; for Kd / koff / kon: typical experiment (n ≥ 3)
Protocol: (§1) Biolayer interferometry was carried out using an Octet RED96 instrument (ForteBio). Biotinylated peptides were immobilized on streptavadin-coated biosensors (ForteBio) at a concentration of 1 μg/ml in BI buffer (25 mM Tris, 150 mM NaCl, 0.1% Tween-20), for 300 s. The immobilization typically reached a response level of 2 nm. Association and dissociation curves were obtained through addition of a dilution series of 14-3-3ζ ([…]) for 300 s followed by dissociation in BI buffer for 300 s using the Octet acquisition software. The binding data were fitted using the Octet analysis software.

[3] = biological target: T2, 14-3-3δ (Homo sapiens, UniProt P63104); assay: Biolayer interferometry (Octet Red96) of candidate protein C-terminal peptides, Table S5; assay type: binding; settings: for koff: typical experiment (n ≥ 3); for affinity for 14-3-3 (in words): compared with farnesylated or geranylgeranylated Rnd3 peptides
T2 construct: hexa-His; made in house; host or cells: E. coli BL21(DE3) Star
T2 sequence (P63104 1-245): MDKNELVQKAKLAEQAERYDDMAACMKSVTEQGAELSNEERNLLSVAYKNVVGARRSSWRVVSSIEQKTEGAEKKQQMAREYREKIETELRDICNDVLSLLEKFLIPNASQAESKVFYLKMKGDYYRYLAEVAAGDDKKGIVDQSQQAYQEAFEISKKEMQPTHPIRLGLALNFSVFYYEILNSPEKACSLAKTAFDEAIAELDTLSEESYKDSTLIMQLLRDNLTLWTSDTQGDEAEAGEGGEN
Protocol: as §1
Table S5. Interactions of C-Terminal Peptides from Candidate Proteins with 14-3-3, […]
The affinities of the indicated phosphorylated and geranylgeranylated peptides for 14-3-3δ were determined by biolayer interferometry using an Octet Red96 instrument. Data of a typical experiment (n ≥ 3) along with statistics of the fit (χ2, R2) are shown. Peptide sequences from the C-terminus of the indicated proteins (last 10 amino acids of the mature protein sequence, terminating with Cys of CAAX box) are shown in single letter amino acid code, with pS/pT denoting phosphorylated serine/threonine. The modifications added to the C-terminal Cys are indicated. GG, geranylgeranylated; KD, dissociation constant; kon, association rate constant; koff, dissocation rate constant.

[4] = biological target: hexa-His-tagged 14-3-3ζ (UniProt P63104); assay: ITC; VP-ITC200; 14-3-3ζ at 50–60 μM, Rnd3 peptides at 500–600 μM; 50 mM Tris pH 7.5, 100 mM NaCl, 1 mM TCEP; 25°C, one-site model; non-binding peptides at 15°C and 25°C
[5] = biological target: T3, hexa-His-tagged 14-3-3ζ (UniProt P63104 1-245); assay: BLI; Octet RED96; biotinylated peptides immobilised on streptavidin-coated biosensors (1 μg/ml, 300 s); dilution series of 14-3-3ζ for 300 s, dissociation 300 s; BI buffer 25 mM Tris, 150 mM NaCl, 0.1% Tween-20; data of a typical experiment (n ≥ 3); settings: both partners purified
T3 construct: 14-3-3 protein zeta; expressed and purified essentially as in Kostelecky et al., 2009; eluted as a dimer of ~60 kDa; the ITC methods call it 'the 14-3-3ζ domain'; source: E. coli BL21(DE3) Star, purified (HisTrap, size-exclusion chromatography)
T3 sequence: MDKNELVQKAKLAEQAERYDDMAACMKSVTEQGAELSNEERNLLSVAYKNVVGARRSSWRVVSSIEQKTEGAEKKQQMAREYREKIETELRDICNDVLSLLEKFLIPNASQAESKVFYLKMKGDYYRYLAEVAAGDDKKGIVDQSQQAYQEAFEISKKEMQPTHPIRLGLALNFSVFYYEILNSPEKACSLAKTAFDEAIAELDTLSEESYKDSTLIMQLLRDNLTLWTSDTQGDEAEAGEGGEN

CC(C)=CCC/C(C)=C/CC/C(C)=C/CSC[C@H](NC(=O)[C@H](COP(=O)(O)O)NC(=O)[C@H](CCCCN)NC(=O)[C@H](C)NC(=O)[C@H](CCCCN)NC(=O)[C@H](CC(=O)O)NC(=O)[C@H](CCCCN)NC(=O)[C@H](CCCNC(=N)N)NC(=O)[C@H](CC(C)C)NC(=O)[C@@H](N)CC(=O)O)C(=O)O [+P+F] (H-DLRKDKAK[pS]C(Farnesyl)-OH)
Kd ([1]; 25°C, 50 mM Tris pH 7.5, 100 mM NaCl, 1 mM TCEP, one-site model, mean ± SD, n = 3): 69 ± 25 nM | Kd [2]: 32.4 nM | koff [2]: 0.028 s⁻¹ | kon [2]: 860000 M⁻¹ s⁻¹

CC(C)=CCC/C(C)=C/CC/C(C)=C/CC/C(C)=C/CSC[C@H](NC(=O)[C@H](COP(=O)(O)O)NC(=O)[C@H](CCCCN)NC(=O)[C@H](C)NC(=O)[C@H](CCCCN)NC(=O)[C@H](CC(=O)O)NC(=O)[C@H](CCCCN)NC(=O)[C@H](CCCNC(=N)N)NC(=O)[C@H](CC(C)C)NC(=O)[C@H](CC(=O)O)NC(=O)CCCCCNC(=O)CCCC[C@@H]1SC[C@@H]2NC(=O)N[C@@H]21)C(=O)O [+P+GG] ({Biotin-Ahx}-DLRKDKAK[pS]C(Geranylgeranyl)-OH)
Kd [2]: 23.2 nM | koff [2]: 0.021 s⁻¹ | kon [2]: 890000 M⁻¹ s⁻¹

CC(C)=CCC/C(C)=C/CSC[C@H](NC(=O)[C@H](COP(=O)(O)O)NC(=O)[C@H](CCCCN)NC(=O)[C@H](C)NC(=O)[C@H](CCCCN)NC(=O)[C@H](CC(=O)O)NC(=O)[C@H](CCCCN)NC(=O)[C@H](CCCNC(=N)N)NC(=O)[C@H](CC(C)C)NC(=O)[C@H](CC(=O)O)NC(=O)CCCCCNC(=O)CCCC[C@@H]1SC[C@@H]2NC(=O)N[C@@H]21)C(=O)O [+P+G] ({Biotin-Ahx}-DLRKDKAK[pS]C(X1)-OH)
Kd [2]: 56.5 nM | koff [2]: 0.032 s⁻¹ | kon [2]: 570000 M⁻¹ s⁻¹

CC(C)=CCSC[C@H](NC(=O)[C@H](COP(=O)(O)O)NC(=O)[C@H](CCCCN)NC(=O)[C@H](C)NC(=O)[C@H](CCCCN)NC(=O)[C@H](CC(=O)O)NC(=O)[C@H](CCCCN)NC(=O)[C@H](CCCNC(=N)N)NC(=O)[C@H](CC(C)C)NC(=O)[C@H](CC(=O)O)NC(=O)CCCCCNC(=O)CCCC[C@@H]1SC[C@@H]2NC(=O)N[C@@H]21)C(=O)O [+P+Ipr] ({Biotin-Ahx}-DLRKDKAK[pS]C(Prenyl)-OH)
fold lower affinity for 14-3-3 compared to Rnd3 peptides with two, three and four isoprenyl groups [2]: approximately 10 fold | Kd [2]: 556 nM | koff [2]: 0.13 s⁻¹ | kon [2]: 240000 M⁻¹ s⁻¹

CC(C)=CCC/C(C)=C/CC/C(C)=C/CC/C(C)=C/CSC[C@H](NC(=O)[C@@H](NC(=O)[C@H](CCCCN)NC(=O)[C@H](CO)NC(=O)[C@H](CCCCN)NC(=O)[C@H](CCCCN)NC(=O)[C@H](CC(=O)O)NC(=O)[C@H](CC(=O)O)NC(=O)CNC(=O)CNC(=O)CCCCCNC(=O)CCCC[C@@H]1SC[C@@H]2NC(=O)N[C@@H]21)[C@@H](C)OP(=O)(O)O)C(=O)O [PDE6C] ({Biotin-Ahx}-GGDDKKSK[pT]C(Geranylgeranyl)-OH)
koff [3]: 0.018 s⁻¹

CC(C)=CCC/C(C)=C/CC/C(C)=C/CC/C(C)=C/CSC[C@H](NC(=O)[C@H](COP(=O)(O)O)NC(=O)[C@H](CCCCN)NC(=O)[C@H](CO)NC(=O)[C@H](CCCNC(=N)N)NC(=O)[C@H](CCCNC(=N)N)NC(=O)[C@H](CCC(=O)O)NC(=O)[C@@H](NC(=O)[C@H](CC(N)=O)NC(=O)[C@@H](NC(=O)CCCCCNC(=O)CCCC[C@@H]1SC[C@@H]2NC(=O)N[C@@H]21)[C@@H](C)O)[C@@H](C)O)C(=O)O [RPRG] ({Biotin-Ahx}-TNTERRSK[pS]C(Geranylgeranyl)-OH)
affinity for 14-3-3 (in words) [3]: intermediate affinity | koff [3]: 0.022 s⁻¹

CC(C)=CCC/C(C)=C/CC/C(C)=C/CC/C(C)=C/CSC[C@H](NC(=O)[C@H](COP(=O)(O)O)NC(=O)[C@H](CO)NC(=O)[C@H](CCCCN)NC(=O)[C@H](CCCCN)NC(=O)[C@H](CCCNC(=N)N)NC(=O)[C@H](C)NC(=O)[C@H](CCCCN)NC(=O)CNC(=O)[C@@H]1CCCN1C(=O)CCCCCNC(=O)CCCC[C@@H]1SC[C@@H]2NC(=O)N[C@@H]21)C(=O)O [Rap1B] ({Biotin-Ahx}-PGKARKKS[pS]C(Geranylgeranyl)-OH)
affinity for 14-3-3 (in words) [3]: lower affinity | koff [3]: 0.055 s⁻¹

CC[C@H](C)[C@H](NC(=O)[C@@H]1CCCN1C(=O)[C@@H](NC(=O)[C@@H]1CCCN1C(=O)CCCCCNC(=O)CCCC[C@@H]1SC[C@@H]2NC(=O)N[C@@H]21)[C@@H](C)O)C(=O)N[C@@H](CCCCN)C(=O)N[C@@H](CCCNC(=N)N)C(=O)NCC(=O)N[C@@H](CCCNC(=N)N)C(=O)N[C@@H](COP(=O)(O)O)C(=O)N[C@@H](CSC/C=C(\C)CC/C=C(\C)CC/C=C(\C)CCC=C(C)C)C(=O)O [RhoG] ({Biotin-Ahx}-PTPIKRGR[pS]C(Geranylgeranyl)-OH)
affinity for 14-3-3 (in words) [3]: lower affinity | koff [3]: 0.035 s⁻¹

DLRKDKAKSC-OH [−P-F]
binding to 14-3-3ζ (in words) ([1]; tested at 15°C and 25°C): no binding | Kd [2]: > 4000 nM

Rap1A+P-GG: phosphorylated Rap1A peptide without the geranylgeranyl modification (EKKKPKKK[pS]C; not fully specified (N-terminus); also: biotinylated)
affinity for 14-3-3ζ (in words) ([2]; Figure 7C): micromolar affinity

biotinylated Rnd3 C-terminal peptide, phosphorylated on S240 (+P−F)
dH [4]: -5.68 kcal/mol | stoichiometry N [4]: 0.89

B1: Rap1A C-terminal peptide, phosphorylated and geranylgeranylated (N-Bio-Eahx-EKKKPKKKpSC(S-geranylgeranyl)-C) (peptide)
peptide: {Biotin-Ahx}-EKKKPKKK[pS]C(Geranylgeranyl)
notes: also called Rap1A+P+GG; source: synthetic peptide
Kd [5]: 23.6 nM | koff [5]: 0.034 s⁻¹ | kon [5]: 1.4e+06 M⁻¹ s⁻¹

{Biotin-Ahx}-GGDDKKSK[pT]C(Geranylgeranyl) (source: synthetic peptide)
Kd [5]: 44.5 nM | kon [5]: 410000 M⁻¹ s⁻¹

{Biotin-Ahx}-PGKARKKS[pS]C(Geranylgeranyl) (source: synthetic peptide)
Kd [5]: 170 nM | kon [5]: 320000 M⁻¹ s⁻¹

{Biotin-Ahx}-PTPIKRGR[pS]C(Geranylgeranyl) (source: synthetic peptide)
Kd [5]: 868 nM | kon [5]: 41000 M⁻¹ s⁻¹

B2: RPGR C-terminal peptide, phosphorylated and geranylgeranylated (N-Bio-Eahx-TNTERRSKpSC(S-geranylgeranyl)-C) (peptide)
peptide: {Biotin-Ahx}-TNTERRSK[pS]C(Geranylgeranyl)
notes: also called RPRG; source: synthetic peptide
Kd [5]: 95 nM | koff [5]: 0.022 s⁻¹ | kon [5]: 240000 M⁻¹ s⁻¹
